Active and inactive are the calls of the source. No cut-off for these calls is given here.
Assays:
[1] = tested on: RAW264.7; experiment: Inhibition of osteoclastogenesis in RANKL-induced osteoclast differentiation in mouse RAW264.7 cells incubated for 4 days by TRAP staining based analysis; assay type: functional, cell-based; details: time 4.0 day
[2] = tested on: BMDM; experiment: Inhibition of osteoclastogenesis in M-CSF/RANKL-induced osteoclast differentiation in C57BL/6J mouse BMDM cells assessed as suppression of multinucleated osteoclasts formation incubated for 6 days by TRAP staining based analysis; assay type: functional, cell-based
[3] = tested on: BMDM; experiment: Inhibition of osteoclastogenesis in M-CSF/RANKL-induced osteoclast differentiation in C57BL/6J mouse BMDM cells assessed as decrease in c-Fos mRNA level at 1 uM measured for 5 days by qRT-PCR analysis; assay type: functional, cell-based; details: time 5.0 day
[4] = tested on: BMDM; experiment: Inhibition of osteoclastogenesis in M-CSF/RANKL-induced osteoclast differentiation in C57BL/6J mouse BMDM cells assessed as decrease in c-Fos level at 1 uM measured for 5 days by Western blot analysis; assay type: functional, cell-based; details: time 5.0 day
[5] = tested on: BMDM; experiment: Inhibition of osteoclastogenesis in M-CSF/RANKL-induced osteoclast differentiation in C57BL/6J mouse BMDM cells assessed as suppression of osteoclast nuclei number measured after 7 days by F-actin ring-TRITC phalloidin staining based analysis; assay type: functional, cell-based; details: dose <= 2.0 µM, time 7.0 day
[6] = tested on: BMDM; experiment: Inhibition of osteoclastogenesis in M-CSF/RANKL-induced osteoclast differentiation in C57BL/6J mouse BMDM cells assessed as reduction in bone resorption area measured after 6 days by hydroxyapatite resorption assay; assay type: functional, cell-based; details: dose <= 2.0 µM, time 6.0 day
[7] = tested on: BMDM; experiment: Inhibition of osteoclastogenesis in M-CSF/RANKL-induced osteoclast differentiation in C57BL/6J mouse BMDM cells assessed as reduction in c-Fos level measured after 5 days by Western blot analysis; assay type: functional, cell-based; details: dose <= 2.0 µM, time 5.0 day
[8] = tested on: BMDM; experiment: Inhibition of osteoclastogenesis in M-CSF/RANKL-induced osteoclast differentiation in C57BL/6J mouse BMDM cells assessed as reduction in cathepsin K level measured after 5 days by Western blot analysis; assay type: functional, cell-based; details: dose <= 2.0 µM, time 5.0 day
[9] = tested on: BMDM; experiment: Inhibition of osteoclastogenesis in M-CSF/RANKL-induced osteoclast differentiation in C57BL/6J mouse BMDM cells assessed as reduction in p38 phosphorylation at 1 uM measured upto 60 mins by Western blot analysis; assay type: functional, cell-based
[10] = tested on: BMDM; experiment: Inhibition of osteoclastogenesis in M-CSF/RANKL-induced osteoclast differentiation in C57BL/6J mouse BMDM cells assessed as reduction in JNK phosphorylation at 1 uM measured upto 60 mins by Western blot analysis; assay type: functional, cell-based
[11] = tested on: BMDM; experiment: Effect in p38 level in M-CSF/RANKL-induced osteoclast differentiation in C57BL/6J mouse BMDM cells at 1 uM measured upto 60 mins by Western blot analysis; assay type: functional, cell-based
[12] = tested on: BMDM; experiment: Effect in ERK level in M-CSF/RANKL-induced osteoclast differentiation in C57BL/6J mouse BMDM cells at 1 uM measured upto 60 mins by Western blot analysis; assay type: functional, cell-based
[13] = tested on: BMDM; experiment: Inhibition of osteoclastogenesis in M-CSF/RANKL-induced osteoclast differentiation in C57BL/6J mouse BMDM cells assessed as reduction in p65 phosphorylation at 1 uM measured upto 60 mins by Western blot analysis; assay type: functional, cell-based
[14] = tested on: BMDM; experiment: Effect in p65 level in M-CSF/RANKL-induced osteoclast differentiation in C57BL/6J mouse BMDM cells at 1 uM measured upto 60 mins by Western blot analysis; assay type: functional, cell-based
[15] = tested on: MC3T3-E1; experiment: Effect on osteoblast differentiation in mouse MC3T3-E1 cells assessed as change in ALP level at 0.5 to 2 uM incubated for 7 days by inverted microscopy; assay type: functional, cell-based; details: dose 0.5-2 µM, time 7.0 day
[16] = tested on: MC3T3-E1; experiment: Effect on osteoblast differentiation in mouse MC3T3-E1 cells assessed as change in Runx2 mRNA level at 0.5 to 2 uM incubated for 7 days by qRT-PCR analysis; assay type: functional, cell-based; details: dose 0.5-2 µM, time 7.0 day
[17] = tested on: MC3T3-E1; experiment: Effect on osteoblast differentiation in mouse MC3T3-E1 cells assessed as change in ALP mRNA level at 0.5 to 2 uM incubated for 7 days by qRT-PCR analysis; assay type: functional, cell-based; details: dose 0.5-2 µM, time 7.0 day
[18] = tested on: MC3T3-E1; experiment: Effect on osteoblast differentiation in mouse MC3T3-E1 cells assessed as change in ALP level at 0.5 to 2 uM incubated for 7 days by Western blot analysis; assay type: functional, cell-based; details: dose 0.5-2 µM, time 7.0 day
[19] = Toxicity in OVX-induced osteoporosis C57BL/6 mouse model assessed as body weight change at 10 mg/kg, po administered every other day for 8 weeks; assay type: organism-based; details: in vivo, 1344 h
[20] = Toxicity in OVX-induced osteoporosis C57BL/6 mouse model assessed as animal fatality at 10 mg/kg, po administered every other day for 8 weeks; assay type: organism-based; details: in vivo, 1344 h
[21] = Toxicity in OVX-induced osteoporosis C57BL/6 mouse model assessed as pathological change in heart at 10 mg/kg, po administered every other day for 8 weeks by H and E staining based analysis; assay type: organism-based; details: in vivo, 1344 h
[22] = Toxicity in OVX-induced osteoporosis C57BL/6 mouse model assessed as pathological change in kidney at 10 mg/kg, po administered every other day for 8 weeks by H and E staining based analysis; assay type: organism-based; details: in vivo, 1344 h
[23] = tested on: Mus musculus; experiment: Anti-osteoporosis effect in OVX-induced osteoporosis C57BL/6 mouse model assessed as reduction in bone mass loss in distal femur at 10 mg/kg, po administered every other day for 8 weeks by micro-CT analysis; assay type: functional, organism-based
[24] = tested on: Mus musculus; experiment: Anti-osteoporosis effect in OVX-induced osteoporosis C57BL/6 mouse model assessed as increase in Tb.N value at 10 mg/kg, po administered every other day for 8 weeks by micro-CT analysis; assay type: functional, organism-based
[25] = tested on: Mus musculus; experiment: Anti-osteoporosis effect in OVX-induced osteoporosis C57BL/6 mouse model assessed as decrease in Tb.Sp value at 10 mg/kg, po administered every other day for 8 weeks by micro-CT analysis; assay type: functional, organism-based
[26] = tested on: Mus musculus; experiment: Anti-osteoporosis effect in OVX-induced osteoporosis C57BL/6 mouse model assessed as increase in number of osteoclasts to bone surface area ratio at 10 mg/kg, po administered every other day for 8 weeks by TRAP staining based analysis; assay type: functional, organism-based
[27] = target: T1, Tumor necrosis factor ligand superfamily member 11 (Homo sapiens) (UniProt O14788); experiment: Binding affinity to CM5 sensor chip-immobilized RANKL (unknown origin) by SPR analysis; details: dose 0.98-31.25 µM
T1 sequence (whole entry): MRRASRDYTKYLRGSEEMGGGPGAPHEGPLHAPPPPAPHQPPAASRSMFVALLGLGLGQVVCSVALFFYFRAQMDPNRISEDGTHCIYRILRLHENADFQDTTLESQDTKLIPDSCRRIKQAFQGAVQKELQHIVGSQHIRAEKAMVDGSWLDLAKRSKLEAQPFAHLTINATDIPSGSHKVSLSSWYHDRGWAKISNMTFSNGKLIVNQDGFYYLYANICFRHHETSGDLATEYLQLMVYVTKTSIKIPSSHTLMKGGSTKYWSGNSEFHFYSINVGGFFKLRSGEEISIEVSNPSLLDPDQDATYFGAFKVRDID

[28] = Inhibition of C57BL/6 mouse T cell proliferation upto 2 uM incubated for 5 days by APC-Annexin V staining based analysis; assay type: toxicity; details: 120 h, time 5 day

Structure (SMILES): O=C1C([Se]c2ccccc2)=C([Se]c2ccccc2)C(=O)N1Cc1ccccc1
- inhibition [1]: Active
- IC50 ([2]; 144 h): 360 nM
- inhibition ([2]; dose <= 2.0 µM, time 6.0 day): Dose-dependent-effect
- inhibition [3]: Active
- inhibition [4]: Active
- inhibition [5]: Dose-dependent-effect
- inhibition [6]: Dose-dependent-effect
- inhibition [7]: Dose-dependent-effect
- inhibition [8]: Dose-dependent-effect
- inhibition [9]: Active
- inhibition [10]: Active
- Activity [11]: No effect
- Activity [12]: No effect
- inhibition [13]: Active
- Activity [14]: No effect
- Activity [15]: No effect
- Activity [16]: No effect
- Activity [17]: No effect
- Activity [18]: No effect
- Activity [19]: Non-toxic
- Activity [20]: Non-toxic
- Activity [21]: Non-toxic
- Activity [22]: Non-toxic
- Activity [23]: Active; Displayed Similar Effect With That Exhibited By Alendronate
- Activity [24]: Active; Displayed Similar Effect With That Exhibited By Alendronate
- Activity [25]: Active; Displayed Similar Effect With That Exhibited By Alendronate
- Activity [26]: Active; Displayed Similar Effect With That Exhibited By Alendronate
- Activity [27]: Dose-dependent-effect
- Activity [28]: Non-toxic
